Source: article PMC7934925, “A GRM7 mutation associated with developmental delay reduces mGlu7 expression and produces neurological phenotypes” (JCI Insight, 2021)

Experiments:
mGlu7 (HA-mGlu7-WT) = molecular target: T1, mGlu7 (HA-mGlu7-WT) (Homo sapiens, UniProt Q14831); assay: thallium flux assay (GIRK) in HEK cells stably expressing the receptor, agonist concentration-response; type: cell-based
T1 construct: gene GRM7; full-length human mGlu7a isoform (NM_000844.4), HA-tagged, stably expressed in HEK/GIRK cells

mGlu7 (HA-mGlu7-I154T) = molecular target: T2, mGlu7 (HA-mGlu7-I154T) (Homo sapiens, UniProt Q14831, I154T); assay: as above; type: cell-based
T2 construct: gene GRM7; full-length human mGlu7a isoform, HA-tagged, I154T, stably expressed in HEK/GIRK cells
T2 sequence (Q14831 35-915 I154T): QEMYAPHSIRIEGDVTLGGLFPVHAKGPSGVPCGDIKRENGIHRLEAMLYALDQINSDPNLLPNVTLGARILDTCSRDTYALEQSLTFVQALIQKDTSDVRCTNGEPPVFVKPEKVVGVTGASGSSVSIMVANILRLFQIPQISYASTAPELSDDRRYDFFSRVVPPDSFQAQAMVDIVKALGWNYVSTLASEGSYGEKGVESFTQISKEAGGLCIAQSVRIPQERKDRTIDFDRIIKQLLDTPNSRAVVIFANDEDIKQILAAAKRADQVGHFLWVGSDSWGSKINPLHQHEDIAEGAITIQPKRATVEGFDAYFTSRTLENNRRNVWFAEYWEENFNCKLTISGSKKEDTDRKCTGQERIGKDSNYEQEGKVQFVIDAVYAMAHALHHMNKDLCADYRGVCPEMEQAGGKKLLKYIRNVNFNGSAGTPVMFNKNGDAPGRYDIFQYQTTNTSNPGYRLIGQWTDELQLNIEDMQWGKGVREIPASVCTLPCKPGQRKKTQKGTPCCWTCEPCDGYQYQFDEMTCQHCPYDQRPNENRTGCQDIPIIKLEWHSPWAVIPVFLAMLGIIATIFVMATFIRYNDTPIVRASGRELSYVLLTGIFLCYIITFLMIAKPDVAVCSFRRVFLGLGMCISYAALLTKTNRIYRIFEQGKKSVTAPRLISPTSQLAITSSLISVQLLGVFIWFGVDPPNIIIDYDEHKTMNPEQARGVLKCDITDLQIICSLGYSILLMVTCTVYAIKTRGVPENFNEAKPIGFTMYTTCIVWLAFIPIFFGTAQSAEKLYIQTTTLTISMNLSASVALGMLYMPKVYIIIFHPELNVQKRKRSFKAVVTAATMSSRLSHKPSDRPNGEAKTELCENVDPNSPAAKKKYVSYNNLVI

T1 sequence (Q14831 35-915): as the sequence (Q14831 35-915 I154T) above, with T120I counted along it

Work on `N[C@@H](CCP(=O)(O)O)C(=O)O` [L-AP4] yielded an EC50 (mGlu7 (HA-mGlu7-WT)) of 176 µM and an EC50 (mGlu7 (HA-mGlu7-I154T)) of 540 µM.
